A short description of series [1]: In-vivo kinetic biodistribution of fluorescence after TCO-R-Rhodamine injection. Conditions: Tz-Me-Gel (released) vs negative control (no gel injection). Set-up: species or system mice. The method, then:
The bar graph extrapolates the data to a presumed total amount achieved in 8 hours.
(§1) For in-vivo experiments, 800 μl of 2.5% alginate solution were mixed with 200 μl of supersaturated […] solution (0.21 g Ca(SO4)2/ml ddH2O). The solutions were mixed for 30 s using a three-way stopcock to achieve a final alginate concentration of 2%. The mixture was immediately injected to the animal in the desired amount.
After IACUC approval, in-vivo real-time biodistribution studies of fluorescence were carried out in nu/nu mice (n=2 per condition) by injecting either nothing or a type of alginate (control vs Tz-Gel). Then subjects received a tail-vein injection of TCO-R-F or TCO-NR-F. The negative controls were: 1. No gels with TCO-R-F (Negative control, mouse 1); 2. control alginate with TCO-R-F (Gel control, mouse 4). The two experimental groups were Tz-gel and either TCO-R-F (Released protocol, mouse 2) or TCO-NR-F (Immobilized protocol, mouse 3). Fluorescence was measured with an IVIS Spectrum (Perkin Elmer, MA) and reported in radiance.

A short description of series [2]: In-vivo kinetic multiple dose evaluation of fluorescence (IVIS Spectrum). Set-up: species or system mice. Conditions: 50 nmoles per tail vein injection; Tz-Me-gel group vs no gel and unmodified alginate gel; paired T-test, n=3. The protocol: Three mice were evaluated after each injection of 50 nmoles of TCO-R-Rhodamine through tail vein injection. The mice were treated as described above their images. […] The “released” subject received an injection in the subcutaneous back of Tz-Me-gel. The “gel control” subject received an injection in the subcutaneous back of alginate gel. The mice were evaluated with an IVIS Spectrum machine after 5-10 minutes and 110-150 minutes after each dose of fluorophore.
Compared by paired T-test (n=3).
as §1

The text below walks through data of patent US12257326B2, “TCO conjugates and methods for delivery of therapeutic agents” (THE REGENTS OF THE UNIVERSITY OF CALIFORNIA, priority 2014, dated 2025).

On to `CN(C)c1ccc2c(-c3ccc(C(=O)NCCNC(=O)OC4/C=C/CCCCC4)cc3C(=O)O)c3ccc(=[N+](C)C)cc-3oc2c1` (centres unmarked) [TCO-R-Rhodamine, (E)-5-((2-(((cyclooct-2-cn-1-yloxy)carbonyl)amino)ethyl)carbamoyl)-2-(3-(dimethyl-Π^4-azanylidene)-6-(dimethylamino)-3H-xanthen-9-yl)benzoic acid], for which the “dose reflected by the area under the curve of fluorescence, extrapolated to total amount in 8 hours” value in series [1] is listed as “almost doubled”. In series [2], the “average fluorescence at 5-10 minutes vs 110-150 minutes after second, third & fourth injection” value was “statistically higher”.
